Where a SMILES comes first, the peptide text is derived from it. Bridges are numbered along the chain shown (N, C = ends). [ ]: non-standard residue; d: D form.
T1: Trypsin (Bos taurus, UniProt P00760)
T1 sequence (P00760 24-246): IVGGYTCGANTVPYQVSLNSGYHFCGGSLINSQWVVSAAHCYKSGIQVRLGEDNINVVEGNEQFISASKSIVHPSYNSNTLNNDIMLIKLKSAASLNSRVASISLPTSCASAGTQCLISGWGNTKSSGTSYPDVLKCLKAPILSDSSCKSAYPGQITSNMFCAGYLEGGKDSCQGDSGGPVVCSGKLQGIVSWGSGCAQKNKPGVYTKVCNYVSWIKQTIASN

T2: Cathepsin G (human, UniProt P08311 21-244)
T2 construct: the assay paragraph itself says only 'cathepsin G ... purchased from Calbiochem'; also called human cathepsin G
T2 sequence (looked up): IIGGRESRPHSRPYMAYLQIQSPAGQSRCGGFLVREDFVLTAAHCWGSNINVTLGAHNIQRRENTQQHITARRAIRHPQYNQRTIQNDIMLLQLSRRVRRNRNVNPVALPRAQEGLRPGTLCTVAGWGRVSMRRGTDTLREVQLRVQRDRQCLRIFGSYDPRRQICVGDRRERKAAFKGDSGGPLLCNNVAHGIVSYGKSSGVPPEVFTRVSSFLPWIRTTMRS


Columns and labels:
Trypsin [1] = target: T1, Trypsin; experiment: Enzymatic assay, determination of antitrypsin activity (apparent Ki); format: biochemical; conditions: competitive tight-binding fit
Procedure: (§1) The active enzyme concentrations were calculated using the equation described by Hendersen (P. J. F. Hendersen, Biochem. J. 1972, 127, 321-333). The inhibitor concentrations were determined by quantitative amino acid analysis. All assays were repeated in quadruplicate.
Determination of Antitrypsin Activity
(§2) As above, except the substrate was N-succinyl-L-alanyl-L-alanyl-L-prolyl-L-phenylalanin-4-nitroanilide (N-succinyl—SEQ ID NO:16—4-nitroanilide; 1.6 mM).
(§3) Apparent Ki values were calculated by fitting the initial rate data to the following equation, which assumes competitive tight-binding inhibition (J. F. Williams, J. F. Morrison, Methods Enzymol. 1979, 63, 437-467): […]

Chymotrypsin [2] = target: Chymotrypsin (Homo sapiens, UniProt P17538); experiment: Enzymatic assay, chymotrypsin inhibition (apparent Ki); format: biochemical; conditions: substrate N-succinyl-Ala-Ala-Pro-Phe-4-nitroanilide 1.6 mM
Chymotrypsin (Homo sapiens, UniProt P17538), sequence (P17538 19-263): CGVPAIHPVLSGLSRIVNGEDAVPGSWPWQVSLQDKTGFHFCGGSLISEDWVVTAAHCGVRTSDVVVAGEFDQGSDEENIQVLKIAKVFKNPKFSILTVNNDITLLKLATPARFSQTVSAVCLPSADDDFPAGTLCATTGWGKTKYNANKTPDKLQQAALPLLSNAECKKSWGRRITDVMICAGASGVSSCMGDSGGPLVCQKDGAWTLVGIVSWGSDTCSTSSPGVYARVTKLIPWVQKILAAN
Procedure: as §1, §2, §3

Cathepsin G = target: T2, Cathepsin G; experiment: enzyme inhibition, Suc-Ala-Ala-Pro-Phe-pNA substrate, release of p-nitroanilide at 405 nm
Procedure: Determination of Anti Cathepsin G Activity […] of a solution of cathepsin G (0.2 U/mL, corresponding to around 2 µM, purchased from Calbiochem) were incubated for 15 minutes with increasing concentrations of inhibitor. The assays were carried out at 37° C. in a total volume of 700 µl of HEPES buffer (pH 7.5; 0.1 mol/L) containing 0.05 mol/L CaCl_2. Then, 70 µl of the following substrate at 20 mM in DMSO were added (—N-succinyl-L-alanyl-L-alanyl-L-prolyl-L-phenylalanin-4-nitroanilide, (N-succinyl—SEQ ID NO:16—4-nitroanilide). The release of p-nitroanilide was monitored at 405 nm to determine the initial velocities of the reactions. Each measurement was reproduced three times (A. J. Barrett, Methods in Enzymology 1981, 80, 561-565).

Trypsin [3] = experiment: enzyme inhibition, chromogenic substrate; apparent Ki fitted as competitive tight-binding inhibition
Chymotrypsin [4] = experiment: as above

Molecule	Ki (Trypsin [1])	Ki (Chymotrypsin [2])	further results
CC[C@H](C)[C@@H]1NC(=O)[C@@H]2CCCN2C(=O)[C@@H]2CCCN2C(=O)[C@H]([C@@H](C)CC)NC(=O)[C@H](CO)NC(=O)[C@H](CCCCN)NC(=O)[C@H]([C@@H](C)O)NC(=O)[C@@H]2CCCN2C(=O)[C@H]2CCCN2C1=O [Ex. 1] (cyclo(TKSIPPI[dP]P))	100 nM	> 10000 nM	–
CC[C@H](C)[C@@H]1NC(=O)[C@@H]2CCCN2C(=O)[C@@H]2CCCN2C(=O)[C@H]([C@@H](C)CC)NC(=O)[C@H](CO)NC(=O)[C@H](CCCCN)NC(=O)[C@H](C)NC(=O)[C@@H]2CCCN2C(=O)[C@H]2CCCN2C1=O [Ex. 2] (cyclo(AKSIPPI[dP]P))	1500 nM	–	–
CC[C@H](C)[C@@H]1NC(=O)[C@@H]2CCCN2C(=O)[C@@H]2CCCN2C(=O)[C@H]([C@@H](C)CC)NC(=O)[C@H](CO)NC(=O)[C@H](C)NC(=O)[C@H]([C@@H](C)O)NC(=O)[C@@H]2CCCN2C(=O)[C@H]2CCCN2C1=O [Ex. 3] (cyclo(TASIPPI[dP]P))	> 10000 nM	–	–
CC[C@H](C)[C@@H]1NC(=O)[C@@H]2CCCN2C(=O)[C@@H]2CCCN2C(=O)[C@H]([C@@H](C)CC)NC(=O)[C@H](C)NC(=O)[C@H](CCCCN)NC(=O)[C@H]([C@@H](C)O)NC(=O)[C@@H]2CCCN2C(=O)[C@H]2CCCN2C1=O [Ex. 4] (cyclo(TKAIPPI[dP]P))	700 nM	–	–
CC[C@H](C)[C@@H]1NC(=O)[C@@H]2CCCN2C(=O)[C@@H]2CCCN2C(=O)[C@H](C)NC(=O)[C@H](CO)NC(=O)[C@H](CCCCN)NC(=O)[C@H]([C@@H](C)O)NC(=O)[C@@H]2CCCN2C(=O)[C@H]2CCCN2C1=O [Ex. 5] (cyclo(TKSAPPI[dP]P))	1900 nM	–	–
CC[C@H](C)[C@@H]1NC(=O)[C@H](CO)NC(=O)[C@H](CCCCN)NC(=O)[C@H]([C@@H](C)O)NC(=O)[C@@H]2CCCN2C(=O)[C@H]2CCCN2C(=O)[C@H]([C@@H](C)CC)NC(=O)[C@@H]2CCCN2C(=O)[C@H](C)NC1=O [Ex. 6] (cyclo(TKSIAPI[dP]P))	> 25000 nM	–	–
CC[C@H](C)[C@@H]1NC(=O)[C@H](C)NC(=O)[C@@H]2CCCN2C(=O)[C@H]([C@@H](C)CC)NC(=O)[C@H](CO)NC(=O)[C@H](CCCCN)NC(=O)[C@H]([C@@H](C)O)NC(=O)[C@@H]2CCCN2C(=O)[C@H]2CCCN2C1=O [Ex. 7] (cyclo(TKSIPAI[dP]P))	110 nM	–	–
CC[C@H](C)[C@@H]1NC(=O)[C@H](CO)NC(=O)[C@H](CCCCN)NC(=O)[C@H]([C@@H](C)O)NC(=O)[C@@H]2CCCN2C(=O)[C@H]2CCCN2C(=O)[C@H](C)NC(=O)[C@@H]2CCCN2C(=O)[C@@H]2CCCN2C1=O [Ex. 8] (cyclo(TKSIPPA[dP]P))	710 nM	–	–
CC[C@H](C)[C@@H]1NC(=O)[C@@H]2CCCN2C(=O)[C@@H]2CCCN2C(=O)[C@H]([C@@H](C)CC)NC(=O)[C@H](CO)NC(=O)[C@H](Cc2ccc(O)cc2)NC(=O)[C@H]([C@@H](C)O)NC(=O)[C@@H]2CCCN2C(=O)[C@H]2CCCN2C1=O [Ex. 9] (cyclo(TYSIPPI[dP]P))	> 25000 nM	4400 nM	–
CC[C@H](C)[C@@H]1NC(=O)[C@@H]2CCCN2C(=O)[C@@H]2CCCN2C(=O)[C@H]([C@@H](C)CC)NC(=O)[C@H](CO)NC(=O)[C@H](Cc2c[nH]c3ccccc23)NC(=O)[C@H]([C@@H](C)O)NC(=O)[C@@H]2CCCN2C(=O)[C@H]2CCCN2C1=O [Ex. 10] (cyclo(TWSIPPI[dP]P))	> 20000 nM	1400 nM	–
CC[C@H](C)[C@@H]1NC(=O)[C@@H]2CCCN2C(=O)[C@@H]2CCCN2C(=O)[C@H]([C@@H](C)CC)NC(=O)[C@H](CO)NC(=O)[C@H](Cc2ccccc2)NC(=O)[C@H]([C@@H](C)O)NC(=O)[C@@H]2CCCN2C(=O)[C@H]2CCCN2C1=O [Ex. 11] (cyclo(TFSIPPI[dP]P))	> 20000 nM	4700 nM	–
CC[C@H](C)[C@@H]1NC(=O)[C@@H]2CCCN2C(=O)[C@@H]2CCCN2C(=O)[C@H]([C@@H](C)CC)NC(=O)[C@H](CO)NC(=O)[C@H](CCCCN)NC(=O)[C@H]([C@@H](C)O)NC(=O)[C@@H]2CSSC[C@H](NC1=O)C(=O)N[C@@H](Cc1ccccc1)C(=O)N1CCC[C@@H]1C(=O)N1CCC[C@H]1C(=O)N[C@@H](CCCNC(=N)N)C(=O)N2 [Ex. 15] (cyclo(RCTKSIPPICF[dP]P); disulfide 2-10)	21 nM	3800 nM	–
cyclo(TKSIPPI[dP]P) (SMILES CC[C@H](C)[C@@H]1NC(=O)[C@@H]2CCCN2C(=O)[C@@H]2CCCN2C(=O)[C@H]([C@@H](C)CC)NC(=O)[C@H](CO)NC(=O)[C@H](CCCCN)NC(=O)[C@H]([C@@H](C)O)NC(=O)[C@@H]2CCCN2C(=O)[C@H]2CCCN2C1=O, Template-fixed beta-hairpin mimetic, cyclic; parent of the Ala scan) [Ex. 1]	–	–	Ki (Cathepsin G): 100 µM; Ki (Trypsin [3]): 0.1 µM
cyclo(RCTKSIPPICF[dP]P) (disulfide 2-10; SMILES CC[C@H](C)[C@@H]1NC(=O)[C@@H]2CCCN2C(=O)[C@@H]2CCCN2C(=O)[C@H]([C@@H](C)CC)NC(=O)[C@H](CO)NC(=O)[C@H](CCCCN)NC(=O)[C@H]([C@@H](C)O)NC(=O)[C@@H]2CSSC[C@H](NC1=O)C(=O)N[C@@H](Cc1ccccc1)C(=O)N1CCC[C@@H]1C(=O)N1CCC[C@H]1C(=O)N[C@@H](CCCNC(=N)N)C(=O)N2, n=11 mimetic made by procedure 3 (disulfide between P2 and P10)) [Ex. 15]	–	–	Ki (Cathepsin G): 10 µM; Ki (Chymotrypsin [4]): 3.8 µM; Ki (Trypsin [3]): 0.021 µM

— patent US7417024B2, “Template-fixed peptidomimetics as inhibitors of serine proteases” (Polyphor Ltd., priority 2001, dated 2008)
